# From patent publication US5143929A, “2-substituted thiazolidinone, oxazolidinone, and imidazolidinone derivatives of fenamates as antiinflammatory agents” (Warner-Lambert Company, priority 1991, dated 1992)
# Like-named read-outs stand apart in the source and are kept apart here.
# Key:
# [1] = target: T1, 5-lipoxygenase (Rattus norvegicus, UniProt P12527); test: ARBL whole cell 5-lipoxygenase assay (inhibition of LTB4 formation in RBL-1 cells); type: cell-based; conditions: for IC50: A23187 stimulated, read-out: ARBL: IC50 (50% inhibition of LTB4 formation)
# T1 construct: host or cells: RBL-1 (rat basophilic leukemia)
# T1 sequence (P12527 1-673): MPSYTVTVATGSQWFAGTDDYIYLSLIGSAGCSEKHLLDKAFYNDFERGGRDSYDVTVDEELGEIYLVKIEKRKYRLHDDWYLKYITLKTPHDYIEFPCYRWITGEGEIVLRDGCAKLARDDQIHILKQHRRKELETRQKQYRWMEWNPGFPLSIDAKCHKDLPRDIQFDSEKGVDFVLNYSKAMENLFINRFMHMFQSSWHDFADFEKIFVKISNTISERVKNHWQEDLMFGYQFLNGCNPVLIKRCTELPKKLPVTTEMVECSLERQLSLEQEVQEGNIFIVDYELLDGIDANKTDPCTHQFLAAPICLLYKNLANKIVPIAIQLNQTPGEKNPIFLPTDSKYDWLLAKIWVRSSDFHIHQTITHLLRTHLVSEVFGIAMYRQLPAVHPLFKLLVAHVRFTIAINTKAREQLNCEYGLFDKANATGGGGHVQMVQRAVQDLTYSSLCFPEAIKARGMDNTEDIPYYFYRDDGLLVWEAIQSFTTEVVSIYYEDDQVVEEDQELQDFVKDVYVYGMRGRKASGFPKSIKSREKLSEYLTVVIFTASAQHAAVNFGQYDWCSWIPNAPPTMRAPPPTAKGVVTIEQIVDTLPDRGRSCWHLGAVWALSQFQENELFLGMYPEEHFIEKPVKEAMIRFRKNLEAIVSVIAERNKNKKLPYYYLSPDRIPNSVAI
# Method: (§1) The rat basophilic leukemia cell line (RBL-1) was obtained from the American Type Culture Collection (Rockville, Md.).
# (§2) Radioimmunoassay (RIA) kits of LTB4 and PGF2α were obtained from Amersham (Arlington Heights, Ill.) and Seragen (Boston, Mass.), respectively.
# (§3) All tissue culture media were obtained from GIBCO (Grand Island, N.Y.).
# (§4) RBL-1 cells are grown in suspension culture in Eagles minimum essential medium supplemental with 12% fetal bovine serum at 37° C. in an incubator supplied with air--5% carbon dioxide. Cells are harvested by centrifugation. They are washed with cold phosphate-buffered saline, pH 7.4 (PBS; NaCl, 7.1 g; Na2 HPO4, 1.15 g; KH2 PO4, 0.2 g; and KCl, 0.2 g/L). Cells are incubated with and without test agent (in DMSO) (1% DMSO is without effect on arachidonic acid metabolism) for 10 minutes at room temperature. Calcium ionophore A23187 (5 μM) is added and cells are incubated for 7 minutes at 37° C. The reaction is stopped by chilling the tubes on ice for 10 minutes. Cells are finally suspended in PBS containing 1.0 mM calcium at a density of 2×10^6 cells/mL. Cells are separated by centrifugation and the supernatant is stored at -20° C. Aliquots (100 μL) are analyzed for LTB4 and PGF2α using radioimmunoassay kits as provided by the supplier.
# (§5) Table 1 contains biochemical data for compounds of formula I obtained from this whole cell assay as IC50 s which are calculated as the concentration of a test compound in micromoles (μM) causing 50% inhibition of LTB4 or PGF2α formation.
# [2] = target: T2, cyclooxygenase (Rattus norvegicus, UniProt Q63921); test: ARBC whole cell cyclooxygenase assay (inhibition of PGF2α formation in RBL-1 cells); type: cell-based; conditions: for IC50: A23187 stimulated, Table 2 (formula II), read-out: ARBC: IC50 (50% inhibition of PGF2α formation)
# T2 construct: host or cells: RBL-1 (rat basophilic leukemia)
# T2 sequence (Q63921 27-602): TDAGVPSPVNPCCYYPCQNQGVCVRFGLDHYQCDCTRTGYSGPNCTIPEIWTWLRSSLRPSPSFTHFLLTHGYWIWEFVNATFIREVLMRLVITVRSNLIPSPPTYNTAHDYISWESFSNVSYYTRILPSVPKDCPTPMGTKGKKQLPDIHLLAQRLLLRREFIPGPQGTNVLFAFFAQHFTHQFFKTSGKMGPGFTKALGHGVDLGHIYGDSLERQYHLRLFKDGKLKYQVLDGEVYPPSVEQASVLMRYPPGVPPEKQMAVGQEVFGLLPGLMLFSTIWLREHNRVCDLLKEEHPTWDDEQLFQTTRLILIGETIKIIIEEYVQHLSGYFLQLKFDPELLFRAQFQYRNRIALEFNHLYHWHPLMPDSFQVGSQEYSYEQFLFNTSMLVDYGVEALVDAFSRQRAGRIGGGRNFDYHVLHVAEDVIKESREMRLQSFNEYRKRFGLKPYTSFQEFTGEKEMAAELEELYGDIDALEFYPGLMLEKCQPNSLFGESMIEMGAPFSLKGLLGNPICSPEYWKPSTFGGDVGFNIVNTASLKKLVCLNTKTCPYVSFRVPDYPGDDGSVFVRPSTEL
# Method: as §1, §2, §3, §4, §5
# [3] = read-out: ARBL: % inhibition of LTB4 at 10 μM, 10 μM, A23187 stimulated, Table 1 (formula I)
# [4] = read-out: ARBC: % inhibition of PGF2α at 10 μM, 10 μM, A23187 stimulated, Table 1 (formula I)
# [5] = read-out: ARBL: % inhibition of LTB4 at 10 μM, 10 μM, A23187 stimulated, Table 2 (formula II)
# [6] = read-out: ARBC: % inhibition of PGF2α at 10 μM, 10 μM, A23187 stimulated, Table 2 (formula II)
structure (smiles),measurement,setting,value
CN1C(=O)/C(=C/c2ccccc2Nc2cccc(C(F)(F)F)c2)SC1=S [Example 4],inhibition at 10 µM,[1]; [3],< 40%
same,inhibition at 10 µM,[2]; [4],< 40%
CC(C)(C)c1cc(Nc2ccccc2/C=C2\SC(=S)NC2=O)cc(C(C)(C)C)c1O [Example 12],IC50,[1]; Table 2 (formula II),1470 nM
same,IC50,[2],2250 nM
"Cc1ccc(Cl)c(Nc2ccccc2/C=C2\SC(=S)N(C)C2=O)c1Cl [Example 3, (Z)-5-[[2-[(2,6-Dichloro-3-methylphenyl)amino]phenyl]methylene]-3-methyl-2-thioxo-4-thiazolidinone]",inhibition at 10 µM,[1]; [3],100%
same,inhibition at 10 µM,[2]; [4],< 40%
"Cc1ccc(Cl)c(Nc2ccccc2/C=C2\SC(=O)NC2=O)c1Cl [Example 7, (Z)-5-[[2-[(2,6-Dichloro-3-methylphenyl)amino]phenyl]methylene]-2,4-thiazolidinedinone]",inhibition at 10 µM,[1]; [5],55%
same,inhibition at 10 µM,[2]; [6],< 40%
Cc1ccc(Cl)c(Nc2ccccc2/C=C2\SC(NC#N)=NC2=O)c1Cl [Example 8],IC50,[1]; Table 2 (formula II),1480 nM
same,IC50,[2],10200 nM
"Cc1ccc(Cl)c(Nc2ccccc2/C=C2\SC(=N)NC2=O)c1Cl [Example 5, (Z)-5-[[2-[(2,6-Dichloro-3-methylphenyl)amino]phenyl]methylene]-2-imino-4-thiazolidinone]",inhibition at 10 µM,[1]; [5],< 40%
same,inhibition at 10 µM,[2]; [6],< 40%
"O=C1NC(=O)/C(=C/c2ccccc2Nc2cccc(C(F)(F)F)c2)S1 [Example 9, (Z)-5-[[2-[[3-(Trifluoromethyl)phenyl]amino]phenyl]methylene]-2,4-thiazolidinedione]",inhibition at 10 µM,[1]; [5],< 40%
same,inhibition at 10 µM,[2]; [6],< 40%
"O=C1NC(=S)S/C1=C\c1ccccc1Nc1cccc(C(F)(F)F)c1 [Example 2, (Z)-2-Thioxo-5-[[2-[[3-(trifluoromethyl)phenyl]amino]phenyl]methylene]-4-thiazolidinone]",inhibition at 10 µM,[1]; [5],< 40%
same,inhibition at 10 µM,[2]; [6],< 40%
"CSC1=NC(=O)/C(=C/c2ccccc2Nc2c(Cl)ccc(C)c2Cl)S1 [Example 6, (Z)-5-[[2-[(2,6-Dichloro-3-methylphenyl)amino]phenyl]methylene]-2-(methylthio)-4(5H)-thiazolone]",inhibition at 10 µM,[1]; [5],100%
same,inhibition at 10 µM,[2]; [6],< 40%
"Cc1ccc(Cl)c(Nc2ccccc2/C=C2\SC(=S)N(CC(=O)O)C2=O)c1Cl [Example 10, (Z)-5-[[2-[[2-Dichloro-3-methylphenyl)-amino]phenyl]methylene]-4-oxo-2-thioxo-3-thiazolidine acetic acid]",IC50,[1]; Table 1 (formula I),2180 nM
same,inhibition at 10 µM,[2]; [4],< 40%
"Cc1ccc(Cl)c(Nc2ccccc2/C=C2\SC(=S)NC2=O)c1Cl [Example 1, (Z)-5-[[2-[(2,6-Dichloro-3-methylphenyl)amino]phenyl]methylene]-2-thioxo-4-thiazolidinone]",IC50,[1]; Table 2 (formula II),820 nM
same,IC50,[2],5960 nM
